# Measurements: PMC6522976, “Novel sulphonamide benzoquinazolinones as dual EGFR/HER2 inhibitors, apoptosis inducers and radiosensitizers” (Journal of Enzyme Inhibition and Medicinal Chemistry, 2019)
# Values joined by “and” are separate entries in the source; they are usually repeats but may differ in a detail not shown here. Equal entries are not always repeated. Where two headings read alike, the source gives them in different places.
# Legend:
# EGFR = target: T1, EGFR (Homo sapiens, UniProt P00533); assay: In vitro enzymatic activity assay, EGFR kinase kit; type: biochemical; conditions: for % Inhibition of EGFR: concentration not given; for IC50: mean ± SE of three independent experiments
# T1 construct: purchased Invitrogen PV3872
# Description: (§1) EGFR and HER2 kinase kits were purchased from Invitrogen. […] ATP solution and a kinase/peptide mixture were prepared. The plate was incubated for 1 h at room temperature. About […] of the developing solution was added to each well. The plate was incubated for 1 h and then read by ELISA Reader (PerkinElmer, USA). Every experiment was repeated three times. Data represented as means ± SE from three independent experiments. Curve fitting was performed using Graph Pad Prism 5.
# [1] = system: MDA-MB-231 breast cancer cells; assay: MTT cytotoxicity assay against MDA-MB-231; type: cell-based; conditions: Homo sapiens, mean ± SE of three independent experiments
# Description: Cells were cultured using Dulbecco’s Modified Eagle’s Medium (Invitrogen/Life Technologies) supplemented with 10% FBS (Hyclone), 10 µg/mL of insulin, and 1% penicillin–streptomycin. Cells were seeded in 96-well plate with cells density 1.2–1.8 × 10,000 cells/well, in a volume of 100 µL complete growth medium + 100 µL of the tested compound per well and the plate was incubated for 24 h before the MTT assay. […] IC50 was calculated according to the equation of Boltzmann sigmoidal concentration-response curve using Graph Pad Prism 5.
# [2] = MTT cytotoxicity against normal breast cells; type: cell-based; conditions: human, 184A1 normal breast cells; MTT assay
# Description: MDA-MB-231 breast cancer cells and 184A1 normal breast cells of American Type Culture Collection were obtained from VACSERA, Egypt. Cells were cultured using Dulbecco’s Modified Eagle’s Medium (Invitrogen/Life Technologies) supplemented with 10% FBS (Hyclone), 10 µg/mL of insulin, and 1% penicillin–streptomycin. Cells were seeded in 96-well plate with cells density 1.2–1.8 × 10,000 cells/well, in a volume of 100 µL complete growth medium + 100 µL of the tested compound per well and the plate was incubated for 24 h before the MTT assay. The cell layer was rinsed with 0.25% (w/v) trypsin, 0.53 mM EDTA solution, incubated for 2 h, then the absorbance was measured at a wavelength of 570 nm[30]. IC50 was calculated according to the equation of Boltzmann sigmoidal concentration-response curve using Graph Pad Prism 5.
# Bax = Bax expression level; type: cell-based, human; conditions: MDA-MB-231 cells, compared to the control cells
# MDA-MB-231 cell line = assay: Cell cycle distribution analysis (propidium iodide, DNA cytometer); type: cell-based, human; conditions: MDA-MB-231 cells treated at IC50; for %Apoptosis: PreG1, control 0.97; for %G2-M: control 6.44; for %S: control 23.04; for %G0-G1: control 69.55
# Description: Control cells with known DNA content (peripheral blood mononuclear cells) were used as a reference point for determining the DNA index for the test samples. The cells were stained with propidium iodide stain following the procedure provided by the kit then incubated at room temperature for 5 min in the dark and run on the DNA cytometer. Cell cycle distribution was calculated using […] software (Becton Dickinson Immunocytometry Systems, San Jose, CA, USA).
# MDA-MB-231 cells = assay: Radiosensitizing activity (MTT with 8 Gy gamma irradiation); type: cell-based; conditions: Homo sapiens, light or radiation study
# Description: Irradiation was performed at the National Center for Radiation Research and Technology (NCRRT), Egyptian Atomic Energy Authority (EAEA), using gamma cell-40 (^137Cs) source. Compound 10 was selected to be re-evaluated for the in vitro antiproliferative activity in combination with γ-irradiation using MTT assay. Cells were incubated with compound 10 in molar concentrations of 0.01, 0.1, 1.0, and 10 µM. After 2 h, cells were subjected to a single dose of 8 Gy of γ-radiation at a dose rate of 0.758 rad/s for 17.73 min, and then the anti-proliferative activity was measured 48 h after irradiation. The IC50 of the tested compounds was calculated after irradiation.
# HER2 = target: T2, HER2 (Homo sapiens, UniProt P04626); assay: In vitro enzymatic activity assay, HER2 kinase kit; type: biochemical; conditions: mean ± SE of three independent experiments
# T2 construct: purchased Invitrogen PV3366
# Description: as §1
# Bcl2 = Bcl2 expression level; type: cell-based, human; conditions: MDA-MB-231 cells, compared to the control cells
# caspase-3 = assay: Active caspase-3 level immunoassay; type: cell-based, human; conditions: for Caspase 3: level of active caspase-3, control 53.2
# Description: Cover and incubate for 2 h at room temperature. […] Incubate for 1 h then add 100 µL anti-rabbit IgG HRP working solution to each well and incubate for 30 min. The absorbance of each well was measured at 450 nm.
# T1 sequence (P00533 25-1210): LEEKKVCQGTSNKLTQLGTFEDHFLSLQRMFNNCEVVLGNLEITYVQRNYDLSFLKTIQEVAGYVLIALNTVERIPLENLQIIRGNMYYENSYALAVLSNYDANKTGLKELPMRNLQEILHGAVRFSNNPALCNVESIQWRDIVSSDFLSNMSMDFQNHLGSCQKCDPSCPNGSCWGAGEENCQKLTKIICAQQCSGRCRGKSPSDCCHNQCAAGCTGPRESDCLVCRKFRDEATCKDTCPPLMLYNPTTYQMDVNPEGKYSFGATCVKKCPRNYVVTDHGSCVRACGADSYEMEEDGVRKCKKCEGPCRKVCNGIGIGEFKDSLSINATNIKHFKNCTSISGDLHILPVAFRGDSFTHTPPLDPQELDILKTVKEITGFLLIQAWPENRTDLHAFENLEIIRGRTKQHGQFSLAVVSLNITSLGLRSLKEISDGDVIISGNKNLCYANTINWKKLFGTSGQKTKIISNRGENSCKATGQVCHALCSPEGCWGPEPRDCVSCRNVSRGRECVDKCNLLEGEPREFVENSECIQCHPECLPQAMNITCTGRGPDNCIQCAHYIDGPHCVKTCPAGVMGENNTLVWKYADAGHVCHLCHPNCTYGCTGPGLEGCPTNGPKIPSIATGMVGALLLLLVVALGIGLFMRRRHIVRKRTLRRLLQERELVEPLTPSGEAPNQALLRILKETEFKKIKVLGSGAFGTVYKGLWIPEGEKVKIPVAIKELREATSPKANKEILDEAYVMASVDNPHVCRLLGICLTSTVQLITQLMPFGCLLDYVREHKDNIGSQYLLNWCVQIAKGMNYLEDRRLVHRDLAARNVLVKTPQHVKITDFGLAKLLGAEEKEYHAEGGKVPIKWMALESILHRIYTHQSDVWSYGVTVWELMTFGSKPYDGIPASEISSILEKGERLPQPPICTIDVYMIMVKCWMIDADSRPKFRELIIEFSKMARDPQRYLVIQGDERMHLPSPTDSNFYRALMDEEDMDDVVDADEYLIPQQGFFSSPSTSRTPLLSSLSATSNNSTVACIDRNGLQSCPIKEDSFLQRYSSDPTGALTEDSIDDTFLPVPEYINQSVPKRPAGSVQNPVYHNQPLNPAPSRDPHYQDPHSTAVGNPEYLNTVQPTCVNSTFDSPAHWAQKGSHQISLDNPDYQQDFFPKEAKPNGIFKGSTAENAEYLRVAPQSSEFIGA
# T2 sequence (P04626 23-1255): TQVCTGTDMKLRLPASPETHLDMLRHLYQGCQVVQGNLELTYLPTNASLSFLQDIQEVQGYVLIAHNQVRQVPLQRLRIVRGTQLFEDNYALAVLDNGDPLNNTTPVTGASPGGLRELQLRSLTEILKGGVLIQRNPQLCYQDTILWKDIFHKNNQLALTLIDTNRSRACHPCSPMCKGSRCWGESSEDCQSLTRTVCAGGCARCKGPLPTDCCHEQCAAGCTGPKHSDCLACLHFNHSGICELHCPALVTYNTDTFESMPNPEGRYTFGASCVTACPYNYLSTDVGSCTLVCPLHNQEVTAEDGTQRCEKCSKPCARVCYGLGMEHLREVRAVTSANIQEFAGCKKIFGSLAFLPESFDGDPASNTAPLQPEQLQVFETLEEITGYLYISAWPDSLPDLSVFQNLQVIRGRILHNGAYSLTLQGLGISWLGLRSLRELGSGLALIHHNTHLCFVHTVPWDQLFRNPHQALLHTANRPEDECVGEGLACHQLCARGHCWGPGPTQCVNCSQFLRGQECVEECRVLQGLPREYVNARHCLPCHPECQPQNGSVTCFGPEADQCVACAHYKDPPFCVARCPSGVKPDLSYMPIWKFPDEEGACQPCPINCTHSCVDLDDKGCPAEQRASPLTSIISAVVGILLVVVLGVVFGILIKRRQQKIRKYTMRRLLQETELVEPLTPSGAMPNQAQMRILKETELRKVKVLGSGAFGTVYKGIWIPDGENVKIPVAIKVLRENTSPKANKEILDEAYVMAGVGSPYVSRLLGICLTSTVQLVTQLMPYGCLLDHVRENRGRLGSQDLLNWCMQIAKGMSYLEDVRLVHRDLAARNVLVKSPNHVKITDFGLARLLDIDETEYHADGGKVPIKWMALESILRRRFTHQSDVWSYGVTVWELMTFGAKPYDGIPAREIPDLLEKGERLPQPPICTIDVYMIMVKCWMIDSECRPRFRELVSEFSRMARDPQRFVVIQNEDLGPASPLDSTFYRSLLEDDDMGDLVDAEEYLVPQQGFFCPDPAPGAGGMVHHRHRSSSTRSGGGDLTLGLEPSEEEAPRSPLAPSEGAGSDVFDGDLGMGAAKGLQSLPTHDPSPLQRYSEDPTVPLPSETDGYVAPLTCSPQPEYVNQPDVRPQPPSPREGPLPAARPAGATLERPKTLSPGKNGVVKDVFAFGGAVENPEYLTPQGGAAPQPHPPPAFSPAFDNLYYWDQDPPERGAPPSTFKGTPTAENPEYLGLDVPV
% Inhibition of EGFR (EGFR),melting point,IC50 (EGFR),IC50 (HER2),SMILES,IC50 [1],also measured
18.13%,304 °C,–,–,"NS(=O)(=O)c1ccc(-n2c(SCC(=O)Nc3nccs3)nc3cc4ccccc4cc3c2=O)cc1 [Compound 6, 2-[(4-Oxo-3-(4-sulfamoylphenyl)-3,4-dihydrobenzo[g]quinazolin-2-yl)thio]-N-(thiazol-2-yl)acetamide]",23.2 ± 1.88 µM,–
25.98%,255.9 °C,–,–,"CCOc1ccc2nc(NC(=O)CSc3nc4cc5ccccc5cc4c(=O)n3-c3ccc(S(N)(=O)=O)cc3)sc2c1 [Compound 7, N-(6-Ethoxybenzo[d]thiazol-2-yl)-2-[(4-oxo-3-(4-sulfamoylphenyl)-3,4-dihydrobenzo[g]quinazolin-2-yl)thio]acetamide]",26.5 ± 2.14 µM,–
52.49%,257 °C,–,–,"NS(=O)(=O)c1ccc(-n2c(SCC(=O)Nc3nnc(C(F)(F)F)s3)nc3cc4ccccc4cc3c2=O)cc1 [Compound 9, 2-[(4-Oxo-3-(4-sulfamoylphenyl)-3,4-dihydrobenzo[g]quinazolin-2-yl)thio]-N-(5-(trifluoromethyl)-1,3,4-thiadiazol-2-yl)acetamide]",2.19 ± 0.05 µM,–
–,279.3 °C,2.55 ± 0.17 µM,31.31 ± 0.31 µM,"Cc1ccc(C)c(NC(=O)CSc2nc3cc4ccccc4cc3c(=O)n2-c2ccc(S(N)(=O)=O)cc2)c1 [Compound 11, N-(2,5-Dimethylphenyl)-2-[(4-oxo-3-(4-sulfamoylphenyl)-3,4-dihydrobenzo[g]quinazolin-2-yl)thio]acetamide]",0.28 ± 0.01 µM,–
–,293.8 °C,10.2 ± 0.1 µM,13.01 ± 0.09 µM,"Cc1cc([N+](=O)[O-])ccc1NC(=O)CSc1nc2cc3ccccc3cc2c(=O)n1-c1ccc(S(N)(=O)=O)cc1 [Compound 13, N-(2-Methyl-4-nitrophenyl)-2-[(4-oxo-3-(4-sulfamoylphenyl)-3,4-dihydrobenzo[g]quinazolin-2-yl)thio]acetamide]",0.4 ± 0.01 µM,–
21.45%,307.7 °C,–,–,"Cn1c(NC(=O)CSc2nc3cc4ccccc4cc3c(=O)n2-c2ccc(S(N)(=O)=O)cc2)cc(=O)n(C)c1=O [Compound 15, N-(1,3-Dimethyl-2,6-dioxo-1,2,3,6-tetrahydropyrimidin-4-yl)-2-[(4-oxo-3-(4-sulfamoylphenyl)-3,4-dihydrobenzo[g]quinazolin-2-yl)thio]acetamide]",21.8 ± 1.63 µM,–

# More lines, now with the values behind:
SMILES,% Inhibition of EGFR (EGFR),melting point,IC50 (EGFR),IC50 (HER2),IC50 [1],also measured
"Cc1cc(NC(=O)CSc2nc3cc4ccccc4cc3c(=O)n2-c2ccc(S(N)(=O)=O)cc2)no1 [Compound 5, N-(5-Methylisoxazol-3-yl)-2-[(4-oxo-3–(4-sulfamoylphenyl)-3,4-dihydrobenzo[g]quinazolin-2-yl)thio]acetamide]",42.00%,292.4 °C,–,–,2.47 ± 0.08 µM,–
"NS(=O)(=O)c1ccc(-n2c(SCC(=O)Nc3nc4ccc([N+](=O)[O-])cc4s3)nc3cc4ccccc4cc3c2=O)cc1 [Compound 8, N-(6-Nitrobenzo[d]thiazol-2-yl)-2-[(4-oxo-3-(4-sulfamoylphenyl)-3,4-dihydrobenzo[g]quinazolin-2-yl)thio]acetamide]",54.61%,278.3 °C,–,–,2.91 ± 0.03 µM,–
"Cc1ccc(NC(=O)CSc2nc3cc4ccccc4cc3c(=O)n2-c2ccc(S(N)(=O)=O)cc2)cc1C [Compound 10, N-(3,4-Dimethylphenyl)-2-[(4-oxo-3-(4-sulfamoylphenyl)-3,4-dihydrobenzo[g]quinazolin-2-yl)thio]acetamide]",–,232.8 °C,3.9 ± 0.03 µM,5.4 ± 0.12 µM,0.31 ± 0.01 µM,"IC50 at 24 h [2]: 84.5 ± 0.72 µM; Bax (Folds) (Bax): 9 Folds and 9.372 Folds; %Apoptosis (MDA-MB-231 cell line): 14.84%; %G2-M (MDA-MB-231 cell line): 17.52%; %S (MDA-MB-231 cell line): 18.28%; %G0-G1 (MDA-MB-231 cell line): 49.36%; IC50 (MDA-MB-231 cells; no irradiation, read-out: IC50 before Irradiation): 0.31 ± 0.01 µM; IC50 (MDA-MB-231 cells; single dose of 8 Gy γ-radiation, measured 48 h after irradiation, read-out: IC50 after Irradiation): 0.22 ± 0.03 µM; Bcl2 (Folds) (Bcl2): 0.14 Folds and 0.1379 Folds; Caspase 3 Folds (caspase-3; increase compared to the control cells): 10 Folds and 10.25 Folds; Caspase 3 (caspase-3): 545.7 pg/mL"
"Cc1cccc(C)c1NC(=O)CSc1nc2cc3ccccc3cc2c(=O)n1-c1ccc(S(N)(=O)=O)cc1 [Compound 12, N-(2,6-Dimethylphenyl)-2-[(4-oxo-3-(4-sulfamoylphenyl)-3,4-dihydrobenzo[g]quinazolin-2-yl)thio]acetamide]",41.86%,300.5 °C,–,–,2.19 ± 0.09 µM,–
"NS(=O)(=O)c1ccc(-n2c(SCC(=O)Nc3c[nH]c(=O)[nH]c3=O)nc3cc4ccccc4cc3c2=O)cc1 [Compound 14, N-(2,4-Dioxo-1,2,3,4-tetrahydropyrimidin-5-yl)-2-[(4-oxo-3-(4-sulfamoylphenyl)-3,4-dihydrobenzo[g]quinazolin-2-yl)thio]acetamide]",–,280 °C,4.11 ± 0.02 µM,26.03 ± 0.22 µM,0.37 ± 0.01 µM,–
"NS(=O)(=O)c1ccc(-n2c(SCC(=O)Nc3cnccn3)nc3cc4ccccc4cc3c2=O)cc1 [Compound 16, 2-[(4-Oxo-3-(4-sulfamoylphenyl)-3,4-dihydrobenzo[g]quinazolin-2-yl)thio]-N-(pyrazin-2-yl)acetamide]",59.66%,205.7 °C,–,–,0.32 ± 0.01 µM,–
"NS(=O)(=O)c1ccc(-n2c(SCC(=O)Nc3cccc4ccccc34)nc3cc4ccccc4cc3c2=O)cc1 [Compound 17, N-(Naphthalene-1-yl)-2-[(4-oxo-3-(4-sulfamoylphenyl)-3,4-dihydrobenzo[g]quinazolin-2-yl)thio]acetamide]",8.71%,241.6 °C,–,–,161 ± 4.69 µM,–
"NS(=O)(=O)c1ccc(-n2c(SCC(=O)Nc3ccc4c(c3)C(=O)c3ccccc3C4=O)nc3cc4ccccc4cc3c2=O)cc1 [Compound 18, N-(9,10-Dioxo-9,10-dihydroanthracen-2-yl)-2-[(4-oxo-3-(4-sulfamoylphenyl)-3,4-dihydrobenzo[g]quinazolin-2-yl)thio]acetamide]",–,256.7 °C,9.66 ± 0.08 µM,3.2 ± 0.04 µM,0.26 ± 0.01 µM,–
"C#Cc1cccc(Nc2ncnc3cc(OCCOC)c(OCCOC)cc23)c1 [Erlotinib, N-(3-ethynylphenyl)-6,7-bis(2-methoxyethoxy)quinazolin-4-amine, reference compound]",–,–,–,–,–,IC50 at 24 h [2]: 102 ± 3.55 µM; %Apoptosis (MDA-MB-231 cell line): 17.33%; %G2-M (MDA-MB-231 cell line): 24.81%; %S (MDA-MB-231 cell line): 16.31%; %G0-G1 (MDA-MB-231 cell line): 41.55%; Caspase 3 (caspase-3): 480.1 pg/mL
